{
  "source": "paper doi:10.1101/2023.11.24.568596v1",
  "about": "(biorxiv, 2023)",
  "details_in_all_cases": "binder",
  "key": {"[1]": {"target": "T1, BMPR2 (Homo sapiens, UniProt Q13873)", "T1 sequence (Q13873 1-1038)": "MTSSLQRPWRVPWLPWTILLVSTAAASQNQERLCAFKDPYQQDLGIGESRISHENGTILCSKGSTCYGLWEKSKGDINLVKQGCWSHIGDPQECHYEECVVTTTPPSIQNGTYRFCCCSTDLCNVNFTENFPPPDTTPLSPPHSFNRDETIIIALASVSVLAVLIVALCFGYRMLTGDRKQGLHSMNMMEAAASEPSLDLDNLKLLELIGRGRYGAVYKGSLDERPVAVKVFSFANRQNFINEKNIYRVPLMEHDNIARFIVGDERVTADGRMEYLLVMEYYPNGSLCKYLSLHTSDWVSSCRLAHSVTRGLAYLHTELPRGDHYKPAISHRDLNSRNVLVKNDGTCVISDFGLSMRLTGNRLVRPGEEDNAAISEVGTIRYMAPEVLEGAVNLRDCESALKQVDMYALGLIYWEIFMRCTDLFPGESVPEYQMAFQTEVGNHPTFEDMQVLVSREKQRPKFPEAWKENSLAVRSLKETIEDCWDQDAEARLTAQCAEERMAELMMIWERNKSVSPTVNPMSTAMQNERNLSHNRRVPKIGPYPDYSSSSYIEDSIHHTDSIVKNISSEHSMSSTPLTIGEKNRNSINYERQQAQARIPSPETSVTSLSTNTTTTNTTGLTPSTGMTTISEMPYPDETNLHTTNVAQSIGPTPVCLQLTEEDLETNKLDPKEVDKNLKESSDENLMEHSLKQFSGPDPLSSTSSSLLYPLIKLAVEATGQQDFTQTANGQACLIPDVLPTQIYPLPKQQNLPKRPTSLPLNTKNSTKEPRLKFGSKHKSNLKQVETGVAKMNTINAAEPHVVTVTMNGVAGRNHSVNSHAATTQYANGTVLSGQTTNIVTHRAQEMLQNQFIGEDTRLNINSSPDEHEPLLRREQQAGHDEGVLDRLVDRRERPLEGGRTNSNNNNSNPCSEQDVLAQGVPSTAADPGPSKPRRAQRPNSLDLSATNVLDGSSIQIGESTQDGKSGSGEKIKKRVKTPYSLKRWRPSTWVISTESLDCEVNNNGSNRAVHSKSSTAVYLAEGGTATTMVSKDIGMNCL"}, "[2]": {"target": "T2, BMX (Homo sapiens, UniProt P51813)", "T2 sequence (P51813 1-675)": "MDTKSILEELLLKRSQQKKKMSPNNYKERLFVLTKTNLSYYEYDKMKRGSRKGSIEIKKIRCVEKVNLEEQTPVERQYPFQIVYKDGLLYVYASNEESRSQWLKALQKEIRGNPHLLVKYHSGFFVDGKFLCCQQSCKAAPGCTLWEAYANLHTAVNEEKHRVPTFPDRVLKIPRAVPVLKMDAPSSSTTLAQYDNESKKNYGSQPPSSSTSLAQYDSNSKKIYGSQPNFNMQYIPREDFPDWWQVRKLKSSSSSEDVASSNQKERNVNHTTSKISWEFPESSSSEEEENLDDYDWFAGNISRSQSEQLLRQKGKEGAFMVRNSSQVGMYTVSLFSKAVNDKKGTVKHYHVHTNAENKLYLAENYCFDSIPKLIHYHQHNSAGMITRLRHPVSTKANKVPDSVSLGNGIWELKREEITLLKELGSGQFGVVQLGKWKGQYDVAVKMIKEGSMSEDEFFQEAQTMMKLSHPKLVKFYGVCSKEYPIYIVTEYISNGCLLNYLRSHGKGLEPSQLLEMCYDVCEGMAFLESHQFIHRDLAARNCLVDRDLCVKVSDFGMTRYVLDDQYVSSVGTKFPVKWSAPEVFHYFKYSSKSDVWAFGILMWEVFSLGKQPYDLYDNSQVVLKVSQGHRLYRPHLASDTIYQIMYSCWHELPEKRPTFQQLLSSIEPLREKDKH"}, "[3]": {"target": "T3, EphB1 (Homo sapiens, UniProt P54762)", "T3 sequence (P54762 1-984)": "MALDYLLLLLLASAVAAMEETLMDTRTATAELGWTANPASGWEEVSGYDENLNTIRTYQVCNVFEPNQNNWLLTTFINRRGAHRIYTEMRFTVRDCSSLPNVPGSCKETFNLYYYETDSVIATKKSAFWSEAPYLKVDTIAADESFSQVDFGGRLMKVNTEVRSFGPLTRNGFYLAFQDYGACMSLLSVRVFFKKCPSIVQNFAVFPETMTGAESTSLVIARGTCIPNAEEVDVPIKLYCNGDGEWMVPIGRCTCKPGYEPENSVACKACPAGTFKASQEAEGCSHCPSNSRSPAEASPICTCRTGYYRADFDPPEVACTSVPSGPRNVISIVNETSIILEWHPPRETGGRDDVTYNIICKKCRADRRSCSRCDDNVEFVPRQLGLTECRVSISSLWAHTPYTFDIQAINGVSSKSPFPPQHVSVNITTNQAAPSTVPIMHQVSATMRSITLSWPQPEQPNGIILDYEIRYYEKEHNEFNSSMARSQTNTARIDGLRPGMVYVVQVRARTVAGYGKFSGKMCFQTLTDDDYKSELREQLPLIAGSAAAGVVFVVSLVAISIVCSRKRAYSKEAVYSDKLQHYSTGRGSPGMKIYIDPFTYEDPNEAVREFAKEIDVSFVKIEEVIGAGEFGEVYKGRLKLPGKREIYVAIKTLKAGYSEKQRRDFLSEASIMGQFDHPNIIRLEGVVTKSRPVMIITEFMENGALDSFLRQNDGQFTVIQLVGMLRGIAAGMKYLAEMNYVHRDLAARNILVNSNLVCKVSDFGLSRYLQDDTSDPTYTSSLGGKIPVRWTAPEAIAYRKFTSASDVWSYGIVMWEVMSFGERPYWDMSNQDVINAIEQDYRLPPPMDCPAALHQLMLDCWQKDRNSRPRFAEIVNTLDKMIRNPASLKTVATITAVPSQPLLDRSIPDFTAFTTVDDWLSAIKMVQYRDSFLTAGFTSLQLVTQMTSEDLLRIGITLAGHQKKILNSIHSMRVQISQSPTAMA"}, "[4]": {"target": "HIPK2 (Homo sapiens, UniProt Q9H2X6)", "sequence (Q9H2X6 whole entry)": "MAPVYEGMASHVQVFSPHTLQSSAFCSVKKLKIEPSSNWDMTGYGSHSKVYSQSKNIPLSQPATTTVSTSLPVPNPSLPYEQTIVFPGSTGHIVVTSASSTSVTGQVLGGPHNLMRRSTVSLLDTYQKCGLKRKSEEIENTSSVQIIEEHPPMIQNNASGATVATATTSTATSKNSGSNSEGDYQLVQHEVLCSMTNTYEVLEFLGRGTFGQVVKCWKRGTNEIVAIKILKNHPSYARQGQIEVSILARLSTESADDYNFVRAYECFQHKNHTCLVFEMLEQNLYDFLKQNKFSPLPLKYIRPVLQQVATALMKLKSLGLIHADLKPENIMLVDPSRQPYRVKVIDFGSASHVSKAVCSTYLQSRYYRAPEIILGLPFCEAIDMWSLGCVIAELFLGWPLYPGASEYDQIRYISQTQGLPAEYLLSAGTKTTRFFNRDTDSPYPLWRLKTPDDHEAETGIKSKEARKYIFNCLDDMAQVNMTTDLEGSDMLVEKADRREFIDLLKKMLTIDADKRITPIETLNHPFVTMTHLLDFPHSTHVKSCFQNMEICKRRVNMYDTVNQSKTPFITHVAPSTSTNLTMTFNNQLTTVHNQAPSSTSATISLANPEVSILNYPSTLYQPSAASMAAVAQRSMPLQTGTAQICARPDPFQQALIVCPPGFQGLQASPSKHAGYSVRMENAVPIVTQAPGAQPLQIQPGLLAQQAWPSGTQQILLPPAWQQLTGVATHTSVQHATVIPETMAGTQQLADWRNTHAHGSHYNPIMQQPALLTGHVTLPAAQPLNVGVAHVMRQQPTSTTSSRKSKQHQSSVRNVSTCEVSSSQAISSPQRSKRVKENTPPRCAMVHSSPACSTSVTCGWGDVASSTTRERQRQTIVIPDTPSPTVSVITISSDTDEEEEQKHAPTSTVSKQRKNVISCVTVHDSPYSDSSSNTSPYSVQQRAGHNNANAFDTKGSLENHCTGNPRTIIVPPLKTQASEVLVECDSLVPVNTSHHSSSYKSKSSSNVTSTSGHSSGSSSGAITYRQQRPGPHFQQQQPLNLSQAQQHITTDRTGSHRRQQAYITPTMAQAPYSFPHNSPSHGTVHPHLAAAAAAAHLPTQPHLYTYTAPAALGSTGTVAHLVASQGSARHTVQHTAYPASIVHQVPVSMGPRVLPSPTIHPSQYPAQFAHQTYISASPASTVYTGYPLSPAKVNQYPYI"}, "[5]": {"target": "PCTAIRE1 (Homo sapiens, UniProt Q00536)", "sequence (Q00536 whole entry)": "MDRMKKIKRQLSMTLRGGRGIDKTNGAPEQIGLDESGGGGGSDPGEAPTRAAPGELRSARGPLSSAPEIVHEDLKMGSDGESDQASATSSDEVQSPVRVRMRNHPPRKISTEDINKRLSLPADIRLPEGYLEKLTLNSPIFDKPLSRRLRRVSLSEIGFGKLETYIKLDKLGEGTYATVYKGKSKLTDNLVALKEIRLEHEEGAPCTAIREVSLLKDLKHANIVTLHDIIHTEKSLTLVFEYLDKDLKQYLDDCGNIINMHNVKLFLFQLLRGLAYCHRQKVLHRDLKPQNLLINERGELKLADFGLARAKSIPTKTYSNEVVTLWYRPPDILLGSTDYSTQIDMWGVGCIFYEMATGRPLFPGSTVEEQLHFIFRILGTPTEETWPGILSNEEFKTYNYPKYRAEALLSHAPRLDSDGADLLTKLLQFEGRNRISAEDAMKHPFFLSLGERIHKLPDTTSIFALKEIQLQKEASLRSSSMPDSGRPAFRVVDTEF"}, "[6]": {"target": "p38a (Homo sapiens, UniProt Q16539)", "sequence (Q16539 whole entry)": "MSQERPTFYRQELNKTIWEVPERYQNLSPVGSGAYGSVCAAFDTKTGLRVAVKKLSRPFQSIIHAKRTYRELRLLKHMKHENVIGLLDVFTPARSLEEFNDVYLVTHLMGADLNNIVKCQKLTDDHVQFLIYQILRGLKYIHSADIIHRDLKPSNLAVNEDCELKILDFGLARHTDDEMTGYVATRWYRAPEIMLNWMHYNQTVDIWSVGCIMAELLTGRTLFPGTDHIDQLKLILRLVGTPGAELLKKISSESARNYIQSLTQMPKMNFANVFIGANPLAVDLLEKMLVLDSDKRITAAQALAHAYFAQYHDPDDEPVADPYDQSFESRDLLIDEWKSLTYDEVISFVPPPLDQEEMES"}},
  "data": [
    {"smiles": "Cc1cccc(-c2ccc(-c3cc4cnc(NCCCN5CCCC5=O)nc4n(CCCCN)c3=O)c(Cl)c2)n1", "note": "[compound 27, MR30]", "values": [
      {"measurement": "ΔTm MR30 (27)", "setting": "[1]", "result": -0.1, "unit": "°C"},
      {"measurement": "ΔTm MR30 (27)", "setting": "[2]", "result": 1.7, "unit": "°C"},
      {"measurement": "ΔTm MR30 (27)", "setting": "[3]", "result": 3.0, "unit": "°C"},
      {"measurement": "ΔTm MR30 (27)", "setting": "[4]", "result": 0.0, "unit": "°C"},
      {"measurement": "ΔTm MR30 (27)", "setting": "[5]", "result": 2.9, "unit": "°C"},
      {"measurement": "ΔTm MR30 (27)", "setting": "[6]", "result": 3.6, "unit": "°C"}
    ]},
    {"smiles": "Cc1cccc(-c2ccc(-c3cc4cnc(Nc5cc(C(F)(F)F)ccc5C)nc4n(CCCCN)c3=O)c(Cl)c2)n1", "note": "[compound 28, 8-(4-Aminobutyl)-6-(2-chloro-4-(6-methylpyridin-2-yl)phenyl)-2-((2-methyl-5-(trifluoromethyl)phenyl)amino)pyrido[2,3-d]pyrimidin-7(8H)-one]", "values": [
      {"measurement": "ΔTm 28", "setting": "[1]", "result": -0.1, "unit": "°C"},
      {"measurement": "ΔTm 28", "setting": "[2]", "result": 3.1, "unit": "°C"},
      {"measurement": "ΔTm 28", "setting": "[3]", "result": 5.1, "unit": "°C"},
      {"measurement": "ΔTm 28", "setting": "[4]", "result": -0.5, "unit": "°C"},
      {"measurement": "ΔTm 28", "setting": "[5]", "result": 1.1, "unit": "°C"},
      {"measurement": "ΔTm 28", "setting": "[6]", "result": 3.9, "unit": "°C"}
    ]},
    {"smiles": "Cc1cccc(-c2ccc(-c3cc4cnc(NCCCN5CCNCC5)nc4n(CCCCN)c3=O)c(Cl)c2)n1", "note": "[compound 29, 8-(4-Aminobutyl)-6-(2-chloro-4-(6-methylpyridin-2-yl)phenyl)-2-((3-(piperazin-1-yl)propyl)amino)pyrido[2,3-d]pyrimidin-7(8H)-one]", "values": [
      {"measurement": "ΔTm 29", "setting": "[1]", "result": 0.0, "unit": "°C"},
      {"measurement": "ΔTm 29", "setting": "[2]", "result": 2.1, "unit": "°C"},
      {"measurement": "ΔTm 29", "setting": "[3]", "result": 4.3, "unit": "°C"},
      {"measurement": "ΔTm 29", "setting": "[4]", "result": 0.6, "unit": "°C"},
      {"measurement": "ΔTm 29", "setting": "[5]", "result": 2.5, "unit": "°C"},
      {"measurement": "ΔTm 29", "setting": "[6]", "result": 3.2, "unit": "°C"}
    ]},
    {"smiles": "Cc1cccc(-c2ccc(-c3cc4cnc(Nc5ccc(CCCO)cc5)nc4n(CCCCN)c3=O)c(Cl)c2)n1", "note": "[compound 30, 8-(4-Aminobutyl)-6-(2-chloro-4-(6-methylpyridin-2-yl)phenyl)-2-((4-(3-hydroxypropyl)phenyl)amino)pyrido[2,3-d]pyrimidin-7(8H)-one]", "values": [
      {"measurement": "ΔTm 30", "setting": "[1]", "result": -0.2, "unit": "°C"},
      {"measurement": "ΔTm 30", "setting": "[2]", "result": 6.6, "unit": "°C"},
      {"measurement": "ΔTm 30", "setting": "[3]", "result": 6.5, "unit": "°C"},
      {"measurement": "ΔTm 30", "setting": "[4]", "result": 2.6, "unit": "°C"},
      {"measurement": "ΔTm 30", "setting": "[5]", "result": 5.0, "unit": "°C"},
      {"measurement": "ΔTm 30", "setting": "[6]", "result": 5.5, "unit": "°C"}
    ]},
    {"smiles": "Cc1cccc(-c2ccc(-c3cc4cnc(Nc5ccc(O)cc5)nc4n(CCCCN)c3=O)c(Cl)c2)n1", "note": "[compound 31, 8-(4-Aminobutyl)-6-(2-chloro-4-(6-methylpyridin-2-yl)phenyl)-2-((4-hydroxyphenyl)amino) pyrido[2,3-d]pyrimidin-7(8H)-one]", "values": [
      {"measurement": "ΔTm 31", "setting": "[1]", "result": 1.0, "unit": "°C"},
      {"measurement": "ΔTm 31", "setting": "[2]", "result": 7.0, "unit": "°C"},
      {"measurement": "ΔTm 31", "setting": "[3]", "result": 6.6, "unit": "°C"},
      {"measurement": "ΔTm 31", "setting": "[4]", "result": 2.6, "unit": "°C"},
      {"measurement": "ΔTm 31", "setting": "[5]", "result": 5.0, "unit": "°C"},
      {"measurement": "ΔTm 31", "setting": "[6]", "result": 4.7, "unit": "°C"}
    ]},
    {"smiles": "Cc1cccc(-c2ccc(-c3cc4cnc(Nc5ccc(C)c(O)c5)nc4n(CCCCN)c3=O)c(Cl)c2)n1", "note": "[compound 32, 8-(4-Aminobutyl)-6-(2-chloro-4-(6-methylpyridin-2-yl)phenyl)-2-((3-hydroxy-4-methylphenyl)amino)pyrido[2,3-d]pyrimidin-7(8H)-one]", "values": [
      {"measurement": "ΔTm 32", "setting": "[1]", "result": -0.4, "unit": "°C"},
      {"measurement": "ΔTm 32", "setting": "[2]", "result": 7.3, "unit": "°C"},
      {"measurement": "ΔTm 32", "setting": "[3]", "result": 6.6, "unit": "°C"},
      {"measurement": "ΔTm 32", "setting": "[4]", "result": 2.6, "unit": "°C"},
      {"measurement": "ΔTm 32", "setting": "[5]", "result": 4.8, "unit": "°C"},
      {"measurement": "ΔTm 32", "setting": "[6]", "result": 5.3, "unit": "°C"}
    ]}
  ]
}
